Laboratory results reported in patent US11912677B1, “1,3-benzothiazol-2-yl-N'-[(3-phenylprop-2-enoyl)oxy]ethanimidamide as an anticancer and antimicrobial compound” (KING FAISAL UNIVERSITY, priority 2023, dated 2024).

How the values were obtained:
[1] = system: human prostate cancer cells (PC3); experiment: Assessment of cytotoxicity by SRB assay, PC3 cells; type: cell-based; conditions: 0.01 μM to 100 μM, 72 h
Experimental: (§1) The human prostate cancer cells (PC3) and human osteosarcoma cells (MG-63) were obtained from Nawah Scientific Inc. (Mokatam, Cairo, Egypt) and cultured in DMEM (Dulbecco's modified eagle's medium), Gibco, USA, supplemented with fetal bovine serum […] at a concentration of 10% and 100 U/mL of penicillin and streptomycin (PS). The Cells were incubated at 37° C. in a humidified environment that contained 5% CO2.
(§2) Cells were seeded in 96-well plates as aliquots of 100 μL cell suspension and incubated in a complete media for 24 h. Afterward, cells were treated with 1,3-benzothiazol-2-yl-N′-[(3-phenylprop-2-enoyl)oxy]ethanimidamide at diverse concentrations ranging from 0.01 μM to 100 μM for 72 h. Then, cells were fixed at 4° C. for one hour with 150 μL of 10% trichloroacetic acid (TCA). […] Then, 150 μL of Tris pH 10.5 (10 mM) was added, and the absorbance was measured at 540 nm using a BMG LABTECH®—FLUOstar Omega microplate reader (Ortenberg, Germany). Half maximal inhibitory concentrations (IC50) values were calculated for each experiment using GraphPad Prism 6 software. […] The inhibition was calculated using the following equation: Inhibition %=100−Average Viability
(§3) The anticancer activity of 1,3-benzothiazol-2-yl-N′-[(3-phenylprop-2-enoyl)oxy]ethanimidamide was assessed against highly aggressive androgen-independent metastatic human prostate cancer cells (PC3) and osteosarcoma (MG-63) cells.

[2] = system: human osteosarcoma cells (MG-63); experiment: Assessment of cytotoxicity by SRB assay, MG-63 cells; type: cell-based; conditions: 0.01 μM to 100 μM, 72 h
Experimental: as §1, §2, §3

melting point: 157 to 159 °C
Compound: N/C(Cc1nc2ccccc2s1)=N\OC(=O)/C=C/c1ccccc1 [1,3-benzothiazol-2-yl-N′-[(3-phenylprop-2-enoyl)oxy]ethanimidamide]
antiproliferative activity against prostate cancer cells (PC3) [1]: excellent antiproliferative activities
antiproliferative activity against osteosarcoma (MG-63) cells [2]: excellent antiproliferative activities
